Assay results from patent US7517646B2, “Functional molecule and process for producing the same” (Fujitsu Limited, priority 2002, dated 2009).

Molecular target: human albumin (Homo sapiens, UniProt P02768)
Assay: affinity column filled with beads bound with human albumin; binding of the selected functional molecule
Settings: functional molecule selected from the random polymer pool N20-M20-N20 on a human albumin affinity column
Experimental: First, an affinity column, which was filled with beads bound with human albumin as the target, was prepared and a solution containing the random polymer pool was passed through this column to leave at a specific condition and, then, the modified oligonucleotide sequence showing the affinity to the target adsorbed to the column (FIG. 3B). Subsequently, remained components other than the remained oligonucleotide sequence were removed by washing sufficiently with a buffer solution and the solution containing human albumin was passed through the column to select and collect the oligonucleotide containing the modified oligonucleotide random sequence (FIG. 3C). The step described above is the selecting step.
This selected modified oligonucleotide sequence was amplified by PCR followed by cloning to know the base sequence of the DNA. As the result, a portion of the base sequence of the determined modified oligonucleotide was “ATGCTCTAGCCCCT” (SEQ ID NO: 1) (FIG. 3D). The step described above is the determining step.
Translating this base sequence on the basis of the relation table presented “AU1GC6U4CU3AGC6C3CC5T” resulting in identification of a structure of the functional molecule (FIG. 3D). The step described above is the translating step.

Chain of human albumin (P02768 25-609): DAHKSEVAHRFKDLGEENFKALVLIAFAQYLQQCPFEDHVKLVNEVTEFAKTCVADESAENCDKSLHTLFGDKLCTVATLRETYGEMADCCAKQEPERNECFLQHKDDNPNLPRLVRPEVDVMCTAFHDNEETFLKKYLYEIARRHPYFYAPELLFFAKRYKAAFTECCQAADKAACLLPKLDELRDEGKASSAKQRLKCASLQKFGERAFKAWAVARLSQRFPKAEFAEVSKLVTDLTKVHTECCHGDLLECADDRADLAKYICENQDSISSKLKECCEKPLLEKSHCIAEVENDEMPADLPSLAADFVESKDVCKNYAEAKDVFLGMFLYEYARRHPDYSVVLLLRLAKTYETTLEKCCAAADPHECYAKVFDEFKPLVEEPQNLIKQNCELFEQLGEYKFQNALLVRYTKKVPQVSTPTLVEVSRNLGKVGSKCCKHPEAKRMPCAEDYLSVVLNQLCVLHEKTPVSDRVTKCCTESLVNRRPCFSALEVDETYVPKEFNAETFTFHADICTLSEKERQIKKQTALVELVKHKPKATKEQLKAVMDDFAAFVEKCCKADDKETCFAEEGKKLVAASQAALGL

AU1GC6U4CU3AGC6C3CC5T (AUGCUCUAGCCCCT; modified nucleotides, further chemistry not given here) [functional molecule]
binding to human albumin: bound specifically with human albumin
